Measurements reported in paper PMC8550792, “Evolution of kinase polypharmacology across HSP90 drug discovery” (Cell Chemical Biology, 2021).
Like-named read-outs stand apart in the source and are kept apart here.

Columns and labels:
PEAK1 = molecular target: T1, PEAK1 (Homo sapiens, UniProt Q9H792); test: HotSpot in vitro kinase radiometric assay; assay type: biochemical; settings: 10uM, ATP 30 uM, Data 1, Data 2
T1 construct: purchased Reaction Biology (HotSpot contract assay)

LCK = molecular target: T2, LCK (Homo sapiens, UniProt P06239); test: HotSpot in vitro kinase radiometric assay; assay type: biochemical; settings: 10uM, ATP 15 uM, Data 1, Data 2
T2 construct: purchased Reaction Biology (HotSpot contract assay)

FYN = molecular target: T3, FYN (Homo sapiens, UniProt P06241); test: HotSpot in vitro kinase radiometric assay; assay type: biochemical; settings: 10uM, ATP 30 uM, Data 1, Data 2
T3 construct: purchased Reaction Biology (HotSpot contract assay)

YES/YES1 = molecular target: T4, YES/YES1 (Homo sapiens, UniProt P07947); test: HotSpot in vitro kinase radiometric assay; assay type: biochemical; settings: 10uM, ATP 50 uM, Data 1, Data 2
T4 construct: purchased Reaction Biology (HotSpot contract assay)

TRAP1 = system: TRAP1; set-up: method as in ChEMBL23 (accessed: 23/08/2018); settings: average of reported values; ref ChEMBL23 (accessed: 23/08/2018); cited from earlier work
HSP90AA1 = settings: average of reported values; ref ChEMBL23 (accessed: 23/08/2018); cited from earlier work
HSP90AB1 = system: HSP90AB1; set-up: method as in ChEMBL23 (accessed: 23/08/2018); settings: average of reported values; ref ChEMBL23 (accessed: 23/08/2018); cited from earlier work
TRKA = molecular target: T5, TRKA (Homo sapiens, UniProt P04629); test: HotSpot in vitro kinase radiometric assay; assay type: biochemical; settings: 10uM, ATP 100 uM, Data 1, Data 2
T5 construct: purchased Reaction Biology (HotSpot contract assay)
Description: (§1) Accordingly, we selected five additional representative HSP90 inhibitors, at least one from each chemical class, including both synthetic inhibitors and natural products.
(§2) Accordingly, we screened the hit compound and the two leads for kinase off-target inhibition using the 16-kinase panel and the same in vitro catalytic assay used previously.
(§3) This radioisotope binding assay was designed to directly detect the true product without the use of modified substrates, coupling enzymes, or detection antibodies thus enabling to directly measure inhibition of catalytic activity. Test or control compounds were incubated with kinase, substrate, cofactors, and radioisotope-labeled ATP (32P-ɣ-ATP or 33P-ɣ-ATP). The reaction mixtures were then spotted onto filter papers, which bind the radioisotope-labeled catalytic product.

PASK = molecular target: T6, PASK (Homo sapiens, UniProt Q96RG2); test: HotSpot in vitro kinase radiometric assay; assay type: biochemical; settings: 10uM, ATP 50 uM, Data 1, Data 2
T6 construct: purchased Reaction Biology (HotSpot contract assay)
Description: as §1, §2, §3

FGR = molecular target: T7, FGR (Homo sapiens, UniProt P09769); test: HotSpot in vitro kinase radiometric assay; assay type: biochemical; settings: 10uM, ATP 50 uM, Data 1, Data 2
T7 construct: purchased Reaction Biology (HotSpot contract assay)

ABL2/ARG = molecular target: T8, ABL2/ARG (Homo sapiens, UniProt P42684); test: HotSpot in vitro kinase radiometric assay; assay type: biochemical; settings: 10uM, ATP 30 uM, Data 1, Data 2
T8 construct: purchased Reaction Biology (HotSpot contract assay)

16-kinase panel = 16-kinase panel screening, in vitro radiometric assay; assay type: biochemical, human; settings: 10 μM
ABL1 = ABL1 (Homo sapiens, UniProt P00519); test: HotSpot in vitro kinase radiometric assay; assay type: biochemical; set-up: purchased Reaction Biology (HotSpot contract assay); settings: 10uM, ATP 40 uM, Data 1, Data 2
PDK4/PDKH4 = molecular target: T9, PDK4/PDKH4 (Homo sapiens, UniProt Q16654); test: HotSpot in vitro kinase radiometric assay; assay type: biochemical; settings: 10uM, ATP 30 uM, Data 1, Data 2
T9 construct: purchased Reaction Biology (HotSpot contract assay)
Method: (§4) Accordingly, we selected five additional representative HSP90 inhibitors, at least one from each chemical class, including both synthetic inhibitors and natural products. […]
as §3

c-Src = molecular target: T10, c-Src (Homo sapiens, UniProt P12931); test: HotSpot in vitro kinase radiometric assay; assay type: biochemical; settings: 10uM, ATP 15 uM, Data 1, Data 2
T10 construct: purchased Reaction Biology (HotSpot contract assay)
Method: as §4, §3

BLK = molecular target: T11, BLK (Homo sapiens, UniProt P51451); test: HotSpot in vitro kinase radiometric assay; assay type: biochemical; settings: 10uM, ATP 10 uM, Data 1, Data 2
T11 construct: purchased Reaction Biology (HotSpot contract assay)
Method: as §4, §3

PDK2/PDHK2 = molecular target: T12, PDK2/PDHK2 (Homo sapiens, UniProt Q15119); test: HotSpot in vitro kinase radiometric assay; assay type: biochemical; settings: 10uM, ATP 15 uM, Data 1, Data 2
T12 construct: purchased Reaction Biology (HotSpot contract assay)
Method: as §4, §3

LYN B = molecular target: T13, LYN B (Homo sapiens, UniProt P07948); test: HotSpot in vitro kinase radiometric assay; assay type: biochemical; settings: 10uM, ATP 20 uM, Data 1, Data 2
T13 construct: purchased Reaction Biology (HotSpot contract assay)
Method: as §4, §3

DDR1 = DDR1 (Homo sapiens, UniProt Q08345); test: HotSpot in vitro kinase radiometric assay; assay type: biochemical; set-up: purchased Reaction Biology (HotSpot contract assay); settings: 10uM, ATP 100 uM, Data 1, Data 2
TRKC = molecular target: T14, TRKC (Homo sapiens, UniProt Q16288); test: HotSpot in vitro kinase radiometric assay; assay type: biochemical; settings: 10uM, ATP 100 uM, Data 1, Data 2
T14 construct: purchased Reaction Biology (HotSpot contract assay)

382 unique human kinases [1] = test: biochemical; assay type: biochemical; settings: cutoff of >85% inhibition at 10 μM; luminespib and ganetespib large kinome panel, others 16-kinase panel
[2] = known interaction (K) listed by CLARITY, cited from earlier work
382 unique human kinases [3] = molecular target: T15, 382 unique human kinases (Homo sapiens, UniProt Q9BYP7); test: biochemical; assay type: biochemical; settings: WNK3; read-out: Control Compound IC50*
T15 construct: purchased Reaction Biology (HotSpot contract assay)

382 unique human kinases [4] = molecular target: T16, 382 unique human kinases (Homo sapiens, UniProt Q86Y07); test: biochemical; assay type: biochemical; settings: kinase VRK2; read-out: Control Compound IC50*
T16 construct: purchased Reaction Biology (HotSpot contract assay)

382 unique human kinases [5] = molecular target: T17, 382 unique human kinases (Homo sapiens, UniProt Q92918); test: biochemical; assay type: biochemical; settings: kinase HPK1/MAP4K1; read-out: Control Compound IC50*
T17 construct: purchased Reaction Biology (HotSpot contract assay)

382 unique human kinases [6] = molecular target: T18, 382 unique human kinases (Homo sapiens, UniProt Q99986); test: biochemical; assay type: biochemical; settings: VRK1; read-out: Control Compound IC50*
T18 construct: purchased Reaction Biology (HotSpot contract assay)
T18 sequence (Q99986 1-396): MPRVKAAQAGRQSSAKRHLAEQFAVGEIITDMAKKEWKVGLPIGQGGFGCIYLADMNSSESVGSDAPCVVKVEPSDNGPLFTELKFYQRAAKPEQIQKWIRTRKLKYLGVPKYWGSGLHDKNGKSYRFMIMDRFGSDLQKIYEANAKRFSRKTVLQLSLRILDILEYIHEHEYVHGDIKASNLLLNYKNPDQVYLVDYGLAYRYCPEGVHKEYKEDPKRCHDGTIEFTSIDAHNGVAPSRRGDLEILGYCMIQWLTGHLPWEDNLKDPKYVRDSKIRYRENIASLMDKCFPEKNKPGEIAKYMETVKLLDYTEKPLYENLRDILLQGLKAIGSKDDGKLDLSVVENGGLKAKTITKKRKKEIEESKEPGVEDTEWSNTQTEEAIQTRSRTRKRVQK

382 unique human kinases [7] = molecular target: T19, 382 unique human kinases (Homo sapiens, UniProt P41279); test: biochemical; assay type: biochemical; settings: COT1/MAP3K8; read-out: Control Compound IC50*
T19 construct: purchased Reaction Biology (HotSpot contract assay)

382 unique human kinases [8] = molecular target: T20, 382 unique human kinases (Homo sapiens, UniProt Q86Z02); test: biochemical; assay type: biochemical; settings: HIPK1; read-out: Control Compound IC50*
T20 construct: purchased Reaction Biology (HotSpot contract assay)

382 unique human kinases [9] = molecular target: T21, 382 unique human kinases (Homo sapiens, UniProt Q96QT4); test: biochemical; assay type: biochemical; settings: kinase TRPM7/CHAK1; read-out: Control Compound IC50*
T21 construct: purchased Reaction Biology (HotSpot contract assay)

T10 sequence (P12931 whole entry): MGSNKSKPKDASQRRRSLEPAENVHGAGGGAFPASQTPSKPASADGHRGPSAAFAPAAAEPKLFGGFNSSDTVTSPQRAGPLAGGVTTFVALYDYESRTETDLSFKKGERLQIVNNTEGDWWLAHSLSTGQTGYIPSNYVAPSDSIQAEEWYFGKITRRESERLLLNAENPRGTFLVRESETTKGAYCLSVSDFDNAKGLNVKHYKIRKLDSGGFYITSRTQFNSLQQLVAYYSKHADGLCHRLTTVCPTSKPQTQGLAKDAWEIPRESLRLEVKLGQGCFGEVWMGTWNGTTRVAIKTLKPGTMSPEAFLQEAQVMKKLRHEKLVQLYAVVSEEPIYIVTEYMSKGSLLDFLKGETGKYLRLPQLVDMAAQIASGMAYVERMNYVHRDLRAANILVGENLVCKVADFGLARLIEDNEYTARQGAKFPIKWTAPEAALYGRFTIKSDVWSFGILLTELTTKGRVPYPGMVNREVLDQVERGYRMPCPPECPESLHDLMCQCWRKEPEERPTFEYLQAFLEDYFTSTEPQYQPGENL
T5 sequence (P04629 33-796): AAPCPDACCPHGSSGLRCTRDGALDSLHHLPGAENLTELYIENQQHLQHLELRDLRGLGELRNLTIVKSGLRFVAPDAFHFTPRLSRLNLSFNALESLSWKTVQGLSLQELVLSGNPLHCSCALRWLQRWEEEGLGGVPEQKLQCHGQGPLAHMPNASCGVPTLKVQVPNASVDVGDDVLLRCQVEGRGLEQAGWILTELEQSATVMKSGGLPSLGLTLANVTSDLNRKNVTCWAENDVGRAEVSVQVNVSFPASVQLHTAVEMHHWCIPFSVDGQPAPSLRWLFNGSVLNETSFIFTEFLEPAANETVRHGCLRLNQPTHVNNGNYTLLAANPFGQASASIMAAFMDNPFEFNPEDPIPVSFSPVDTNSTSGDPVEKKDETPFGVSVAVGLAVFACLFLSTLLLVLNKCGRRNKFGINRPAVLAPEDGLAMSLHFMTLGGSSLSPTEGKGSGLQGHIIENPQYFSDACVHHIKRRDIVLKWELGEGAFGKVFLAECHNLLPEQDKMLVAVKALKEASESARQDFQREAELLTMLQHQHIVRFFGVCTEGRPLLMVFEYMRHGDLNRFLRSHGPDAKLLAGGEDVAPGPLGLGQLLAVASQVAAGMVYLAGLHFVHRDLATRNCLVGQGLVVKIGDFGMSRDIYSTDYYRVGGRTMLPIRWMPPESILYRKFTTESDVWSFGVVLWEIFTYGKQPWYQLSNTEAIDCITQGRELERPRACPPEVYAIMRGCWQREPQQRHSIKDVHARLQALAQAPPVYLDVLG
T7 sequence (P09769 whole entry): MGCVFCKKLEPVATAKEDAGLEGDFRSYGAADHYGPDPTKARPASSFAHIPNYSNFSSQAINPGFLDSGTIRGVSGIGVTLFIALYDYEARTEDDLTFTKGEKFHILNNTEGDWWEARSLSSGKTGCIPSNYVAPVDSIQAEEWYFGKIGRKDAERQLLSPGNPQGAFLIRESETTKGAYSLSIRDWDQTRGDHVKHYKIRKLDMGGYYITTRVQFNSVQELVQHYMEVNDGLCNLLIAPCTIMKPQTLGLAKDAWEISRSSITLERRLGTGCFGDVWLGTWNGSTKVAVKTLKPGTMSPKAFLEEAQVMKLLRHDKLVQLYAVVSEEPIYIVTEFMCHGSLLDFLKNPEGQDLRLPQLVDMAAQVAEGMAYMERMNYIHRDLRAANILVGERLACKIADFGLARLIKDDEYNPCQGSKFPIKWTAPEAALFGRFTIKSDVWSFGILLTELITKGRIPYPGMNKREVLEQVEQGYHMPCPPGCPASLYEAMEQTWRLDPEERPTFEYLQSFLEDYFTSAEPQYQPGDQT
T6 sequence (Q96RG2 whole entry): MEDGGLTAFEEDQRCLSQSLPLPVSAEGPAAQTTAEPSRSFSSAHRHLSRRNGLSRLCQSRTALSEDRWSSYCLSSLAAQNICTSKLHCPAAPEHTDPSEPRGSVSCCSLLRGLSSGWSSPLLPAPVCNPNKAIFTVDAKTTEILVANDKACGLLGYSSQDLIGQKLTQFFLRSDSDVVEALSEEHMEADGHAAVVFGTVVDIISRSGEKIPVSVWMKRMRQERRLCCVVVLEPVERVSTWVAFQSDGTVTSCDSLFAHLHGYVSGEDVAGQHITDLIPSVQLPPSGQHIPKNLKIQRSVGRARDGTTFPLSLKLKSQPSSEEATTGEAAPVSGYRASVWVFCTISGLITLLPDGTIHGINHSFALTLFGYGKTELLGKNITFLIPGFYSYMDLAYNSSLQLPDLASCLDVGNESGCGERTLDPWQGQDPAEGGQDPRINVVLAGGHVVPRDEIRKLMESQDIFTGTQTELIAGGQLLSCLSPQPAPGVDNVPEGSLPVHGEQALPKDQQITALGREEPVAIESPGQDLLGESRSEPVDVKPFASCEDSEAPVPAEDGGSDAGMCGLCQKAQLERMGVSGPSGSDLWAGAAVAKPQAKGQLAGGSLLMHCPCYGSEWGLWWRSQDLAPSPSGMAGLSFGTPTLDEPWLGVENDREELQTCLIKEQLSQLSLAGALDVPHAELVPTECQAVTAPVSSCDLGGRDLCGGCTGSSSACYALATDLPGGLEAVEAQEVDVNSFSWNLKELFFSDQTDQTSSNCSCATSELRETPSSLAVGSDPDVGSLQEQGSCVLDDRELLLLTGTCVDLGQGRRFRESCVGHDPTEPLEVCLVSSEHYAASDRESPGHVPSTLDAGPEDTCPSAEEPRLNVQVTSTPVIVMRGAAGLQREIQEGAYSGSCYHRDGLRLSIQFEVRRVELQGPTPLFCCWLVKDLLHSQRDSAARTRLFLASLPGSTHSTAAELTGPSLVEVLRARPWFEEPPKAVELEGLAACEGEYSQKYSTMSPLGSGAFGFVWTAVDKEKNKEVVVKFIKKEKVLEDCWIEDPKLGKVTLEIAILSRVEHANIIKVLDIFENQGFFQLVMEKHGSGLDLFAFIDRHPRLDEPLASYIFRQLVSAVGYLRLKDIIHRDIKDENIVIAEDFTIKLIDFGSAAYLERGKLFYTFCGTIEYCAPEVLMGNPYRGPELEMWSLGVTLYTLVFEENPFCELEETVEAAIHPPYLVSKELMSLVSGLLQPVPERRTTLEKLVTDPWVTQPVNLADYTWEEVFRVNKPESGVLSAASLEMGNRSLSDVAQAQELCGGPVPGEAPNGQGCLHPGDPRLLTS
T8 sequence (P42684 whole entry): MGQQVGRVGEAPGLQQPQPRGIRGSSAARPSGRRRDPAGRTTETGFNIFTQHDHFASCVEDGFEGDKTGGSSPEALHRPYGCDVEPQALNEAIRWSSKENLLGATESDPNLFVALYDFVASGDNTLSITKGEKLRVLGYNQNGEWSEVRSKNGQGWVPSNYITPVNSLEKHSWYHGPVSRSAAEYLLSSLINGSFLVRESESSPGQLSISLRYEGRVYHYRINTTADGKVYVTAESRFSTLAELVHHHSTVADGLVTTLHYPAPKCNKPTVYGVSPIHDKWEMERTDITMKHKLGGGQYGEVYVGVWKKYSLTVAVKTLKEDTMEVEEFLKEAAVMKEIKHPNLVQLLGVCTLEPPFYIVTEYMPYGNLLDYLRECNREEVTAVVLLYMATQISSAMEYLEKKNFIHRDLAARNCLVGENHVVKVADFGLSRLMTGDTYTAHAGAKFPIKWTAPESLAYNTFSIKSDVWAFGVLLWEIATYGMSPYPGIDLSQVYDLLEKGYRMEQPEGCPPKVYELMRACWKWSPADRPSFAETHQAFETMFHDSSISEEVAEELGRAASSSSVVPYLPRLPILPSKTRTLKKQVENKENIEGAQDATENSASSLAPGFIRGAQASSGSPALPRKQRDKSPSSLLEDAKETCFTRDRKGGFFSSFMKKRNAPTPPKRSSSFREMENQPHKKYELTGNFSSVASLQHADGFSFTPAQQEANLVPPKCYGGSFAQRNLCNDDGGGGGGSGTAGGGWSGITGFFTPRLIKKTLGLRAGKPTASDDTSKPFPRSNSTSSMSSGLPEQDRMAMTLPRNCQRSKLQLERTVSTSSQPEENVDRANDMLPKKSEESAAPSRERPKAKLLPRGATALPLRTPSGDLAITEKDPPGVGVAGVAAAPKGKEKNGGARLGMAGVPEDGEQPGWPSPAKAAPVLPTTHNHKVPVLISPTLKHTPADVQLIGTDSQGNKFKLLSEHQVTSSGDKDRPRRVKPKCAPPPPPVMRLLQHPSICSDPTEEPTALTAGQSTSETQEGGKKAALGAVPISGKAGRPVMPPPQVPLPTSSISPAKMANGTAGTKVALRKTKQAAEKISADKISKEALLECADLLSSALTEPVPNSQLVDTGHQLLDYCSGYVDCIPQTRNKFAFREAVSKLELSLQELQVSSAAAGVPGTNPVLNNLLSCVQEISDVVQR
T13 sequence (P07948 1-491 isoform P07948-2): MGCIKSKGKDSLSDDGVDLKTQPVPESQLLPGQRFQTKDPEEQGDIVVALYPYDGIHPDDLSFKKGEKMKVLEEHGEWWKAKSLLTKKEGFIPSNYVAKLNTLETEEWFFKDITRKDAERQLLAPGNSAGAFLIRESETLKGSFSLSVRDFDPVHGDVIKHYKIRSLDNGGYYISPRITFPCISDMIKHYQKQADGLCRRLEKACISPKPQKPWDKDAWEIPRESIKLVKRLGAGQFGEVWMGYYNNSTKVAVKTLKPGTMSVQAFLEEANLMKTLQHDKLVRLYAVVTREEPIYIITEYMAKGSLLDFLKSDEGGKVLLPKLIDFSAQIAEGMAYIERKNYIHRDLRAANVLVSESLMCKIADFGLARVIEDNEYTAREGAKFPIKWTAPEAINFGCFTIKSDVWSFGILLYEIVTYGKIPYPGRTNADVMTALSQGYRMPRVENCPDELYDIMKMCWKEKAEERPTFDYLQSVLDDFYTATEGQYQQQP

CN(C)c1cc2c(cc1Sc1nc3c(N)nccc3n1CCNCC(C)(C)C)OCO2 [Debio-0932]
% Enzyme Activity (relative to DMSO controls) (PEAK1; PEAK1): 103.94% | remaining activity at 10 µM (PEAK1; read-out: % Enzyme Activity (relative to DMSO controls), PEAK1): 104% | % Enzyme Activity (relative to DMSO controls) (LCK; LCK): 109.56% | remaining activity at 10 µM (LCK; read-out: % Enzyme Activity (relative to DMSO controls), LCK): 110% | % Enzyme Activity (relative to DMSO controls) (FYN; FYN): 102.22% | remaining activity at 10 µM (FYN; read-out: % Enzyme Activity (relative to DMSO controls), FYN): 103% | % Enzyme Activity (relative to DMSO controls) (YES/YES1; YES/YES1): 102.37% | remaining activity at 10 µM (YES/YES1; read-out: % Enzyme Activity (relative to DMSO controls), YES/YES1): 96% | pActivity, TRAP1 (TRAP1): 5.8 | pActivity, HSP90AA1 (HSP90AA1): 7.48 | pActivity, HSP90AB1 (HSP90AB1): 7.42 | % Enzyme Activity (relative to DMSO controls) (TRKA; TRKA): 103.51% | remaining activity at 10 µM (TRKA; read-out: % Enzyme Activity (relative to DMSO controls), TRKA): 104% | % Enzyme Activity (relative to DMSO controls) (PASK; PASK): 102.33% | remaining activity at 10 µM (PASK; read-out: % Enzyme Activity (relative to DMSO controls), PASK): 101% | % Enzyme Activity (relative to DMSO controls) (FGR; FGR): 101.88% | remaining activity at 10 µM (FGR; read-out: % Enzyme Activity (relative to DMSO controls), FGR): 102% | % Enzyme Activity (relative to DMSO controls) (ABL2/ARG; ABL2/ARG): 106.65% | remaining activity at 10 µM (ABL2/ARG; read-out: % Enzyme Activity (relative to DMSO controls), ABL2/ARG): 107% | activity against the 16-kinase panel (16-kinase panel): inactive | % Enzyme Activity (relative to DMSO controls) (ABL1; ABL1): 104.74% | remaining activity at 10 µM (ABL1; read-out: % Enzyme Activity (relative to DMSO controls), ABL1): 111% | % Enzyme Activity (relative to DMSO controls) (PDK4/PDKH4; PDK4/PDKH4): 111.02% | remaining activity at 10 µM (PDK4/PDKH4; read-out: % Enzyme Activity (relative to DMSO controls), PDK4/PDKH4): 111% | % Enzyme Activity (relative to DMSO controls) (c-Src; c-Src): 109.48% | remaining activity at 10 µM (c-Src; read-out: % Enzyme Activity (relative to DMSO controls), c-Src): 107% | % Enzyme Activity (relative to DMSO controls) (BLK; BLK): 109.86% | remaining activity at 10 µM (BLK; read-out: % Enzyme Activity (relative to DMSO controls), BLK): 110% | % Enzyme Activity (relative to DMSO controls) (PDK2/PDHK2; PDK2/PDHK2): 100.31% | remaining activity at 10 µM (PDK2/PDHK2; read-out: % Enzyme Activity (relative to DMSO controls), PDK2/PDHK2): 108% | % Enzyme Activity (relative to DMSO controls) (LYN B; LYN B): 101.36% | remaining activity at 10 µM (LYN B; read-out: % Enzyme Activity (relative to DMSO controls), LYN B): 101% | % Enzyme Activity (relative to DMSO controls) (DDR1; DDR1): 85.1% | remaining activity at 10 µM (DDR1; read-out: % Enzyme Activity (relative to DMSO controls), DDR1): 94.8% | % Enzyme Activity (relative to DMSO controls) (TRKC; TRKC): 97.21% | remaining activity at 10 µM (TRKC; read-out: % Enzyme Activity (relative to DMSO controls), TRKC): 93.3% | number of off-target kinases experimentally identified, In vitro binding (KinomeSCAN) (382 unique human kinases [1]): 0

COc1c(C)cnc(Cn2cnc3c(Cl)nc(N)nc32)c1C [BIIB021]
pACT(exp) ([2]; Endoplasmin (P14625)): 6.8 | pACT(exp) ([2]; Heat shock protein 75 kDa, mitochondrial (Q12931)): 7.1 | pACT(exp) ([2]; Heat shock protein HSP 90-alpha (P07900)): 8.1 | pACT(exp) ([2]; Heat shock protein HSP 90-beta (P08238)): 7.8 | number of off-target kinases experimentally identified, In vitro binding (KinomeSCAN) (382 unique human kinases [1]): 0

O=C1NC(=O)c2c1c(-c1ccccc1Cl)cc1[nH]c3ccc(O)cc3c21 [Wee-1 Inhibitor]
IC50 (382 unique human kinases [3]): 3.57 µM

Ro-31-8220
IC50 (382 unique human kinases [4]): 9.05 µM | IC50 (382 unique human kinases [5]): 0.0443 µM | IC50 (382 unique human kinases [6]): 0.528 µM | IC50 (382 unique human kinases [7]): 7.83 µM | IC50 (382 unique human kinases [8]): 0.8 µM

CCCCCCCCCCCCCCCCn1cc[n+](Cc2ccccc2)c1C [NH125]
IC50 (382 unique human kinases [9]): 9.95 µM
